IC50 data for 4 compounds are collected here from patent US20090069384A1, “THIENOPYRROLES USEFUL IN THE TREATMENT OF INFLAMMATION” (BIOLIPOX AB, priority 2005, published 2009).

Structures are written as SMILES.

A word on the IC50: it is the point on the concentration scale where inhibition reaches its midpoint. Low values mean higher potency, high ones lower potency.

In the experiment the target is T1, mPGES-1 (Homo sapiens, UniProt O14684).
T1 construct: made in house; host or cells: E. coli (membrane fraction)
T1 sequence (O14684 1-152): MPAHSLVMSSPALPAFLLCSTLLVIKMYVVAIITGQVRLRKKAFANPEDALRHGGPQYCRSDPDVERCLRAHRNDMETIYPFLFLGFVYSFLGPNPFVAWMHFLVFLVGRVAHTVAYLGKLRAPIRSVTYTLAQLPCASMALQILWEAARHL
The experiment is described as follows: mPGES-1 inhibition assay (conversion of PGH2 to PGE2, HPLC analysis). Particulars: mPGES-1 expressed in E. coli, membrane fraction; room temperature; PGH2 substrate, 60 seconds. Type of experiment: biochemical. How it is done: In the assay mPGES-1 catalyses the reaction where the substrate PGH2 is converted to PGE2. mPGES-1 is expressed in E. coli and the membrane fraction is dissolved in 20 mM NaPi-buffer pH 8.0 and stored at −80° C. […] The stop solution consists of H2O/MeCN (7/3), containing FeCl2 (25 mM) and HCl (0.15 M). The assay is performed at room temperature in 96-well plates.
The following is added chronologically to each well: • 1. 100 uL mPGES-1 in KPi-buffer with glutathione. Total protein concentration: 0.02 mg/mL. • 2. 1 μL inhibitor in DMSO. Incubation of the plate at room temperature for 25 minutes. • 3. 4 μL of a 0.25 mM PGH2 solution. Incubation of the plate at room temperature for 60 seconds. • 4. 100 μL stop solution. • 180 μL per sample is analyzed with HPLC.
For `CC(C)(C)c1ccc(-c2cc3c(s2)c(-c2ccc(C(C)(C)C)cc2)c(C(=O)O)n3Cc2cccc(Cl)c2)cc1` [Example 2, 2,6-Bis-(4-tert-butylphenyl)-4-(3-chlorobenzyl)thieno[3,2-b]pyrrole-5-carboxylic Acid], inhibition was half-maximal at 0.39 µM (IC50). With `Cc1ccc(-c2cc3c(s2)c(I)c(C(=O)O)n3Cc2cccc(Cl)c2)s1` [Example 4, 4-(3-Chlorobenzyl)-6-iodo-2-(5-methylthien-2-yl)thieno[3,2-b]pyrrole-5-carboxylic Acid] the figure was 1.3 µM. `Cc1ccc(-n2c(C(=O)O)cc3sc(-c4ccc(OC(C)C)cc4)cc32)cc1[N+](=O)[O-]` [Example 28, 2-(4-Isopropoxyphenyl)-4-(4-methyl-3-nitrophenyl)thieno[3,2-b]pyrrole-5-carboxylic Acid] had an IC50 of 5.1 µM.

The compound `CC(C)Oc1ccc(-c2cc3cc(C(=O)O)n(Cc4cccc(Cl)c4)c3s2)cc1` [Example 35, 6-(3-Chlorobenzyl)-2-(4-isopropoxyphenyl)-6H-thieno[2,3-b]pyrrole-5-carboxylic Acid] displayed a half-maximal inhibitory concentration (IC50) of 4.7 µM.
